≈ marks a conversion by molar mass, not a printed value.
Experiments:
[1] = Lipophilicity, logD of compound in octanol/water by shake flask method; format: physicochemical
[2] = target: Mitogen-activated protein kinase kinase kinase kinase 1 (Homo sapiens, UniProt Q92918); test: Inhibition of full-length recombinant human HPK1 (1 to 182 residues) extracted from baculovirus infected Sf21 cells using phospho-acceptor peptide as substrate incubated for 15 mins in presence of ATP by fluorescence based assay
[3] = Induction of IL-2 production in human T cells pretreated for 30 mins followed by anti-CD3/CD28 stimulation for 24 hrs by MSD analysis; format: functional, cell-based; details: T-cell
[4] = Selectivity ratio of IC50 for cytotoxicity against PBMC (unknown origin) assessed as inhibition of ATP level incubated for 3 days by Cell Titer Glo assay to IC50 for inhibition of SLP76 phosphorylation at Ser376 in human Jurkat cells incubated for 30 mins by HTRF assay; format: toxicity, cell-based; details: read-out: Ratio IC50
[5] = Cytotoxicity against PBMC (unknown origin) assessed as inhibition of ATP level incubated for 3 days by Cell Titer Glo assay; format: toxicity, cell-based
Homo sapiens = species: Homo sapiens; test: Selectivity ratio of Ki for N-terminal 6xHis-tagged human recombinant full-length LCK to Ki for full-length recombinant human HPK1 (1 to 182 residues) expressed in baculovirus infected Sf21 cells
[6] = Kinetic solubility of compound at pH 7.4 incubated for 24 hrs by MS/MS analysis; format: physicochemical; details: buffer, read-out: Kinetic_solubility
[7] = Tmax in monkey at 1 mg/kg, po or 0.5 mg/kg, iv; format: ADME, organism-based, Macaca mulatta; details: rhesus monkey, in vivo
[8] = Terminal half life in monkey at 1 mg/kg, po or 0.5 mg/kg, iv; format: ADME, organism-based, Macaca mulatta; details: rhesus monkey, in vivo, read-out: beta t1/2 (converted)
[9] = Clearance in monkey at 1 mg/kg, po or 0.5 mg/kg, iv; format: ADME, organism-based, Macaca mulatta; details: rhesus monkey, in vivo
[10] = Unbound clearance in monkey at 1 mg/kg, po or 0.5 mg/kg, iv; format: ADME, organism-based, Macaca mulatta; details: rhesus monkey, in vivo
[11] = Oral bioavailability in mouse at 15 mg/kg, po; format: ADME, organism-based; details: in vivo
[12] = Volume of distribution at steady state in monkey at 1 mg/kg, po or 0.5 mg/kg, iv; format: ADME, organism-based, Macaca mulatta; details: rhesus monkey, in vivo
[13] = Tmax in mouse at 15 mg/kg, po or 1 mg/kg, iv; format: ADME, organism-based; details: in vivo
[14] = Clearance in mouse at 15 mg/kg, po or 1 mg/kg, iv; format: ADME, organism-based; details: in vivo
[15] = Terminal half life in mouse at 15 mg/kg, po or 1 mg/kg, iv; format: ADME, organism-based; details: in vivo, read-out: beta t1/2 (converted)
[16] = Oral bioavailability in monkey at 1 mg/kg, po; format: ADME, organism-based, Macaca mulatta; details: rhesus monkey, in vivo
[17] = Unbound clearance in mouse at 15 mg/kg, po or 1 mg/kg, iv; format: ADME, organism-based; details: in vivo
[18] = Volume of distribution at steady state in mouse at 15 mg/kg, po or 1 mg/kg, iv; format: ADME, organism-based; details: in vivo
[19] = Intrinsic clearance in human hepatocytes measured per million cells at 1 uM measured for 240 mins by LC-MS/MS analysis; format: ADME, cell-based, Hepatocyte; details: read-out: CLH
[20] = Permeability in RRCK cells; format: ADME, cell-based, Canis lupus familiaris, MDCKII-LE; details: dog, MDCK; read-out: permeability
[21] = Stability in human plasma assessed as half life measured for 120 mins by LC-MS/MS analysis; format: ADME, cell-free

Mitogen-activated protein kinase kinase kinase kinase 1, sequence (Q92918 whole entry, the tested form may be a part): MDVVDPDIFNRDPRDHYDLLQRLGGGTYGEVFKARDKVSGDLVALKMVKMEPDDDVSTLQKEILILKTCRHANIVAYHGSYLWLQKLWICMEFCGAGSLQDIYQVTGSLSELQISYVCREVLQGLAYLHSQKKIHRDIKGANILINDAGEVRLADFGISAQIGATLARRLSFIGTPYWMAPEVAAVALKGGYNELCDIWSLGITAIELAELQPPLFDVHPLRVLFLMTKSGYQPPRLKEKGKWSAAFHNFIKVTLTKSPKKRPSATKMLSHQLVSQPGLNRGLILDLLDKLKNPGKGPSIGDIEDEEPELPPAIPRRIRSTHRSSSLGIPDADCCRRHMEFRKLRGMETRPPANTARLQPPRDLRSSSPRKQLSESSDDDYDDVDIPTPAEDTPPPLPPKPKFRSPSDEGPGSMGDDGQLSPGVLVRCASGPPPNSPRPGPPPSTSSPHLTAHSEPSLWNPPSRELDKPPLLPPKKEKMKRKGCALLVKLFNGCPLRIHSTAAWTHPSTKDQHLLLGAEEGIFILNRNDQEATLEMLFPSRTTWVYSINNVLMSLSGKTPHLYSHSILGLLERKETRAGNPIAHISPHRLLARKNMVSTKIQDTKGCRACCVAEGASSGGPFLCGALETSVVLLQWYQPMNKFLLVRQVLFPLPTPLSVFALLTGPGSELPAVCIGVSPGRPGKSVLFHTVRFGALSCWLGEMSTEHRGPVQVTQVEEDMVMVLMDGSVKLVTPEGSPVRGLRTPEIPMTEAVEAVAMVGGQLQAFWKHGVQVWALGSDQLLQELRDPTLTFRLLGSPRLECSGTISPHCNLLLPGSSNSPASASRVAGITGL

| SMILES | logD [1] | IC50 [2] | EC50 [3] | selectivity ratio at 3 days [4] | IC50 at 3 days [5] | Ratio Ki (Homo sapiens) | hepatocyte CLint at 1 µM [19] | Papp [20] | further results |
| --- | --- | --- | --- | --- | --- | --- | --- | --- | --- |
| CNCc1nc(N(C)C(C)C)cc2c1CN(c1cccc(-c3nnc4n3[C@@H](C)CC4)n1)C2=O | 1.9 | < 0.05 nM | 47 nM | 11 | 500 nM |  |  |  |  |
| CC(C)n1cnnc1-c1cccc(N2Cc3c(CO)cccc3C2=O)n1 | 2.1 | 22 nM |  |  |  | > 13 |  |  | solubility kinetic at 24 h [6]: < 0.1 µM |
| CC[C@@H](N)c1nc(N2CCC[C@H]2C)cc2c1CN(c1cccc(-c3nnc4n3[C@@H](C)CC4)n1)C2=O | 2.5 |  | 59 nM |  | 800 nM |  | 56 µL/min/1e6 cells | 8.3 ×10⁻⁶ cm/s | Tmax [7]: 1 h; half-life [8]: 4.3 h; clearance [9]: 14 mL/min/kg; CL free [10]: 143 mL/min/kg; bioavailability [11]: 38%; Vdss [12]: 3.7 L/kg; Tmax [13]: 2 h; clearance [14]: 39 mL/min/kg; half-life [15]: 3.3 h; bioavailability [16]: 20%; CL free [17]: 690 mL/min/kg; Vdss [18]: 4.9 L/kg; solubility kinetic at 24 h [6]: 260 µM (≈ 123 µg/mL) |
| CC[C@@H](N)c1nc(N2CCC[C@H]2C)cc2c1CN(c1cccc(-c3nncn3CC)n1)C2=O | 2.3 | < 0.09 nM | 142 nM | 42 | 2200 nM |  |  |  |  |
| COc1ccc(CC#N)cc1C(=O)Nc1cccc(-c2nncn2C(C)C)n1 | 2.3 | 14 nM |  |  |  | 6 |  |  |  |
| CCCn1cnnc1-c1cccc(N2Cc3c(cc(N(C)C(C)C)nc3CNC)C2=O)n1 | 2 | < 0.13 nM | 74 nM | 24 | 2100 nM |  | 15 µL/min/1e6 cells | 19.3 ×10⁻⁶ cm/s |  |
| CNCc1nc(N(C)C)cc2c1CN(c1cccc(-c3nncn3C(C)C)n1)C2=O | 0.8 | 0.15 nM |  |  |  | 1600 |  |  |  |
| CCCn1cnnc1-c1cccc(N2Cc3c(cc(N4CCC[C@H]4C)nc3CNC)C2=O)n1 | 2.1 | < 0.06 nM | 38 nM | 32 | 1100 nM |  | 23 µL/min/1e6 cells | 15.1 ×10⁻⁶ cm/s |  |
| CNCc1cc(OC)cc2c1CN(c1cccc(-c3nncn3[C@@H](C)CC(F)(F)F)n1)C2=O | 1.6 | 0.3 nM |  | 4 | 487 nM | 210 | 11 µL/min/1e6 cells | 20.4 ×10⁻⁶ cm/s | solubility kinetic at 24 h [6]: 202 µM (≈ 93 µg/mL) |
| CC(C)n1cnnc1-c1cccc(NC(=O)c2cccc3c2nc(CN)n3C)n1 | 1.7 | 10 nM |  |  |  | > 45 |  |  |  |
| CNCc1nc(N(C)C(C)C)cc2c1CN(c1cccc(-c3nnc4n3[C@@H](CF)CC4)n1)C2=O | 1.6 | 0.07 nM | 64 nM | 25 | 1300 nM |  |  |  |  |
| CCCn1cnnc1-c1cccc(N2Cc3c(cc(N(C)C)nc3CNC)C2=O)n1 | 1 | 0.27 nM | 97 nM | 29 | 3500 nM |  | 5.2 µL/min/1e6 cells | 17.7 ×10⁻⁶ cm/s |  |
| CC[C@H]1CCc2nnc(-c3cccc(N4Cc5c(cc(N(C)C(C)C)nc5CNC)C4=O)n3)n21 | 2.2 | < 0.06 nM | 116 nM | 13 | 500 nM |  |  |  |  |
| CC[C@H](C)n1cnnc1-c1cccc(NC(=O)c2cccc3c2nc(CN)n3C)n1 | 2 | 2.7 nM |  |  |  | 37 |  |  | half-life [21]: 2.1 h |
| C[C@@H]1CCCN1c1cc2c(c([C@@H](C)N)n1)CN(c1cccc(-c3nnc4n3[C@@H](C)CC4)n1)C2=O | 2.3 | < 0.05 nM | 62 nM | 21 | 1100 nM |  |  |  |  |
| CCCn1c(C)nnc1-c1cccc(N2Cc3c(cc(N(C)C(C)C)nc3CNC)C2=O)n1 | 2 | < 0.17 nM | 154 nM | > 41 | > 3300 nM |  |  |  |  |
| CC(C)n1cnnc1-c1cccc(NC(=O)c2cccc3c2OCC(N)C3)n1 (stereo not drawn) | 1.2 | 7.7 nM |  |  |  | > 65 |  |  |  |
| CNCc1nc(N(C)C)cc2c1CN(c1cccc(-c3nncn3[C@@H](C)CC(F)(F)F)n1)C2=O | 1.3 | < 0.05 nM |  |  |  | > 260 |  |  |  |
| COc1ccc2c(c1CN)CN(c1cccc(-c3nncn3[C@@H](C)CC(F)(F)F)n1)C2=O | 0.7 | 2.5 nM |  |  |  | > 140 | < 2.3 µL/min/1e6 cells | 2.9 ×10⁻⁶ cm/s | solubility kinetic at 24 h [6]: 372 µM (≈ 166 µg/mL) |
| CNCc1cc(OC)cc2c1CN(c1cccc(-c3nncn3C(C)C)n1)C2=O | 1.1 | 1.1 nM |  | 5 | 1700 nM | > 470 | 10 µL/min/1e6 cells | 27 ×10⁻⁶ cm/s | solubility kinetic at 24 h [6]: 495 µM (≈ 194 µg/mL) |
| CC(C)n1cnnc1-c1cccc(N2Cc3c(CN)cccc3C2=O)n1 | 0.7 | 194 nM |  |  |  | > 3 |  |  | half-life [21]: > 6 h; solubility kinetic at 24 h [6]: > 600 µM |
| CCC(C)n1cnnc1-c1cccc(NC(=O)c2cccc3c2OCC(N)C3)n1 (stereo not drawn) | 1.7 | 2.2 nM |  |  |  | > 230 |  |  | half-life [21]: 3.38 h |
